{"source": "patent US4623715A", "about": "“Novel peptides which are active on the central nervous system and have an action on the cholinergic system” (Hoechst Aktiengeselleschaft, priority 1984, dated 1986)", "key": {"[1]": {"tested_on": "cholinergic system (striatum of rats)", "assay": "Biochemical effects in the striatum (acetylcholine and choline content) after s.c. administration; action on the cholinergic system", "assay_type": "in vivo", "conditions": "for Biochemical effects in the striatum: ACH (acetylcholine) / Biochemical effects in the striatum: CH (choline): s.c., at the dose printed in the same line (E2), arrow up/down = content increased/reduced; for Biochemical effects in the striatum: Dose mcg/kg s.c.; (rats): s.c. dose in rats at which the ACH/CH effects of the same line are reported", "description": "At the same time, cholinergic mechanisms in the central nervous system (CNS) are influenced. In the striatum of rats, the choline content is reduced and the acetylcholine content is increased following subcutaneous administration of 10 μg.\nThe action of the compounds according to the invention on the cholinergic system is determined by a method described in J. Neurochem. 20 (1973), pages 1-8."}, "rats": {"tested_on": "rats", "assay": "Behavior (grooming, yawning, stretching; urge to groom and move) after i.c.v. administration", "assay_type": "in vivo", "conditions": "i.c.v. administration of 10 μg"}, "[2]": {"tested_on": "acetylcholine conversion in various areas of the brain", "conditions": "intracerebroventricular (i.c.v.) administration; cited from earlier work"}, "[3]": {"tested_on": "cholinergic system (striatum of rats)", "assay": "Biochemical effects in the striatum (acetylcholine and choline content) after s.c. administration; action on the cholinergic system", "assay_type": "in vivo", "conditions": "s.c. administration of 1 μg"}, "[4]": {"conditions": "rats, subcutaneous administration of 10 μg"}}}
{"molecule": "COC(=O)[C@H](Cc1ccccc1)NC(=O)[C@H](CCCCN)NC(=O)OCc1ccccc1", "note": "[IV, Z--Lys--Phe--OMe]", "values": [{"measurement": "acetylcholine content in the striatum", "setting": "[1]; [4]", "value": "increased"}, {"measurement": "choline content in the striatum", "setting": "[1]; [4]", "value": "reduced"}, {"measurement": "urge to groom and move", "setting": "rats", "value": "cause the urge to groom and move"}]}
{"molecule": "ACTH (SYSMEHFRWGKPVGKKRRPVKVYPNGAEDESAEAFPLEF; Corticotropin; UniProt P01189 138-176, looked up) [peptide hormone cited from the literature]", "values": [{"measurement": "acetylcholine conversion in various areas of the brain", "setting": "[2]", "value": "acceleration"}]}
{"molecule": "ACTH--(1-24) [VI, reference compound]", "values": [{"measurement": "acetylcholine conversion in various areas of the brain", "setting": "[2]", "value": "acceleration"}, {"measurement": "Biochemical effects in the striatum: ACH (acetylcholine)", "setting": "[1]; rats", "value": ".dwnarw."}, {"measurement": "Biochemical effects in the striatum: CH (choline)", "setting": "[1]; rats", "value": ".uparw."}, {"measurement": "Biochemical effects in the striatum: Dose mcg/kg s.c.; (rats)", "setting": "[1]", "value": "0.01 to 1", "unit": "µg/kg"}]}
{"molecule": "Z--D--Lys--Phe--NH--(CH2)8 --NH2.2HCl [V]", "values": [{"measurement": "Biochemical effects in the striatum: ACH (acetylcholine)", "setting": "[1]; rats", "value": ".uparw."}, {"measurement": "Biochemical effects in the striatum: CH (choline)", "setting": "[1]; rats", "value": ".dwnarw."}, {"measurement": "Biochemical effects in the striatum: Dose mcg/kg s.c.; (rats)", "setting": "[1]", "value": 1.0, "unit": "µg/kg"}, {"measurement": "acetylcholine content in the striatum", "setting": "[3]; same actions as IV at 10 μg (increased)", "value": "the same actions"}, {"measurement": "choline content in the striatum", "setting": "[3]; same actions as IV at 10 μg (reduced)", "value": "the same actions"}]}
